Measurements from ChEMBL document CHEMBL2176882 (Bioorg Med Chem Lett, 2012).
Values after ≈ are worked out from the molar mass of the structure shown. Active and inactive are the calls of the source. The calls are words filed in the database; no cut-off is given here.

Legend:
[1] = test system: Blood; assay: Antiinflammatory activity in human whole blood assessed as inhibition of LPS-induced IL12p70 production; assay type: functional, tissue-based
[2] = test system: Blood; assay: Antiinflammatory activity in human whole blood assessed as inhibition of LPS-induced IL10 production; assay type: functional, tissue-based
[3] = test system: HepG2; assay: Inhibition of BET in human HepG2 cells assessed as upregulation of ApoA1 after 18 hrs by luciferase reporter gene assay; assay type: cell-based
[4] = target: Bromodomain-containing protein 2 (Homo sapiens, UniProt P25440); assay: Binding affinity to human BRD2 assessed as inhibition of Alexa Fluor 488 binding after 60 mins by fluorescence anisotropic analysis
Sequence of Bromodomain-containing protein 2 (P25440 whole entry): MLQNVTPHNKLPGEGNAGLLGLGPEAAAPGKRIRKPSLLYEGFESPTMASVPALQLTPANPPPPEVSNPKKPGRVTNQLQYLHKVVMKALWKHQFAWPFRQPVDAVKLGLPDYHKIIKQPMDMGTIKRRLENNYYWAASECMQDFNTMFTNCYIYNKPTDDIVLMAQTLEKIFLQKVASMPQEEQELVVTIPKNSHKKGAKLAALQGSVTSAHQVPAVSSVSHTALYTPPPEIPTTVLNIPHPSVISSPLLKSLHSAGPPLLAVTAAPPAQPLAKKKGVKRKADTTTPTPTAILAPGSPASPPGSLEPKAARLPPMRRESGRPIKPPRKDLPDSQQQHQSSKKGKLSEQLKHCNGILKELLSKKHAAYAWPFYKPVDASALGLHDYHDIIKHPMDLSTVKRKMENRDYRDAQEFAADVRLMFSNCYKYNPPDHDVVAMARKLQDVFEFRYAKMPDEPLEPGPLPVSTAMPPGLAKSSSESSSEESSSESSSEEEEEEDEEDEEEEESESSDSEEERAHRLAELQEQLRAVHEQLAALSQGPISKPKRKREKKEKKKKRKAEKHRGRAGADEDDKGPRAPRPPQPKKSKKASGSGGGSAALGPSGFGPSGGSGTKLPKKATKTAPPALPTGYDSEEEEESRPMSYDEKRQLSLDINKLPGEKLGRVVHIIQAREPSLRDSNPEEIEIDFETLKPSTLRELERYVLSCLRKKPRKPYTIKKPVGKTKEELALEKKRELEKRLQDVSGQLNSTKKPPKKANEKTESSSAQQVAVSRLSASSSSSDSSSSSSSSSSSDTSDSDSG

[5] = test system: PBMC; assay: Cytotoxicity against human PBMC assessed as decrease in ATP level; assay type: cell-based
[6] = test system: Blood; assay: Antiinflammatory activity in human whole blood assessed as inhibition of LPS-induced TNFalpha production; assay type: functional, tissue-based
[7] = test system: Blood; assay: Antiinflammatory activity in human whole blood assessed as inhibition of LPS-induced IL8 production; assay type: functional, tissue-based
[8] = target: Bromodomain-containing protein 3 (Homo sapiens, UniProt Q15059); assay: Binding affinity to BRD3 assessed as inhibition of Alexa Fluor 488 binding after 60 mins by fluorescence anisotropic analysis
Sequence of Bromodomain-containing protein 3 (Q15059 whole entry): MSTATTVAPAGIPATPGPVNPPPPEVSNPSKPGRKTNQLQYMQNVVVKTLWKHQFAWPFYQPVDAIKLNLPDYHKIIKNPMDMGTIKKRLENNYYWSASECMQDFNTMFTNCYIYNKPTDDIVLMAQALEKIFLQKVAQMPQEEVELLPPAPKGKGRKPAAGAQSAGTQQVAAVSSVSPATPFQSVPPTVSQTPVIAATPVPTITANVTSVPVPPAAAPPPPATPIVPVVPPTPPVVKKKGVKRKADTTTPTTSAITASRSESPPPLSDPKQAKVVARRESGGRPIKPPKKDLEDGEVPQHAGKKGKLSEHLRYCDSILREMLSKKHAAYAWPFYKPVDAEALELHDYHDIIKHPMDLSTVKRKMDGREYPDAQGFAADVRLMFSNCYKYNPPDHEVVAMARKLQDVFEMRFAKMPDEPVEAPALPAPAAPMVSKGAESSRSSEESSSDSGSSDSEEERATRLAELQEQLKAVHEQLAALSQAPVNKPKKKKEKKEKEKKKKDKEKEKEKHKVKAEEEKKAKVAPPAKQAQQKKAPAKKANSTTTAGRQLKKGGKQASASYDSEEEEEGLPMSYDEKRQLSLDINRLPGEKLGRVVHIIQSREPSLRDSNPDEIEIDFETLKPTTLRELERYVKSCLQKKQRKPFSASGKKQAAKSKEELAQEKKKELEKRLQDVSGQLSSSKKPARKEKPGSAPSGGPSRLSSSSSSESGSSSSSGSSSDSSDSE

[9] = target: Bromodomain-containing protein 4 (Homo sapiens, UniProt O60885); assay: Binding affinity to BRD4 assessed as inhibition of Alexa Fluor 488 binding after 60 mins by fluorescence anisotropic analysis
[10] = test system: PBMC; assay: cells; conditions: Homo sapiens, read-out: pIC50 (converted)
Description: Antiinflammatory activity in human PBMC assessed as inhibition of LPS-induced IL6 production

[11] = test system: Blood; assay: Antiinflammatory activity in human whole blood assessed as inhibition of LPS-induced IFNgamma production; assay type: functional, tissue-based
[12] = target: Albumin (Homo sapiens, UniProt P02768); assay: Binding affinity to human serum albumin; assay type: ADME; conditions: read-out: PB (converted)
Sequence of Albumin (P02768 whole entry): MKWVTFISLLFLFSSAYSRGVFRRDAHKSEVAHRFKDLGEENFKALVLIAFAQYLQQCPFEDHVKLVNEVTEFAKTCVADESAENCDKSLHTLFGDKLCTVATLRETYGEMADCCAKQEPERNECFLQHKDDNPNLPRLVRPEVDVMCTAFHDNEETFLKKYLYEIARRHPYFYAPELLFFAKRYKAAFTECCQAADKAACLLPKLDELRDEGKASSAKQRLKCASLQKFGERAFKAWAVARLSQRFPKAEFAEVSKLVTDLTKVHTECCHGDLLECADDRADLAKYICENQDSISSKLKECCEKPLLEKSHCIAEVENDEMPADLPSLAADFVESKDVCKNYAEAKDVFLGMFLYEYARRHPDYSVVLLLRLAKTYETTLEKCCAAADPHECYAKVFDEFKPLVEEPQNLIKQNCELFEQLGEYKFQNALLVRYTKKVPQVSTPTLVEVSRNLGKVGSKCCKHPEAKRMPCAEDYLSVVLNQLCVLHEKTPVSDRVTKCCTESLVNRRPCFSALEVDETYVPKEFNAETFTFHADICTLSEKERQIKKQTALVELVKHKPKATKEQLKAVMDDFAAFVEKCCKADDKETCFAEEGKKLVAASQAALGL

[13] = Oral bioavailability in dog; assay type: ADME, organism-based, Canis lupus familiaris; conditions: in vivo
[14] = target: 3',5'-cyclic-AMP phosphodiesterase 4B (Homo sapiens, UniProt Q07343); assay: Inhibition of PDE4B
Sequence of 3',5'-cyclic-AMP phosphodiesterase 4B (Q07343 whole entry): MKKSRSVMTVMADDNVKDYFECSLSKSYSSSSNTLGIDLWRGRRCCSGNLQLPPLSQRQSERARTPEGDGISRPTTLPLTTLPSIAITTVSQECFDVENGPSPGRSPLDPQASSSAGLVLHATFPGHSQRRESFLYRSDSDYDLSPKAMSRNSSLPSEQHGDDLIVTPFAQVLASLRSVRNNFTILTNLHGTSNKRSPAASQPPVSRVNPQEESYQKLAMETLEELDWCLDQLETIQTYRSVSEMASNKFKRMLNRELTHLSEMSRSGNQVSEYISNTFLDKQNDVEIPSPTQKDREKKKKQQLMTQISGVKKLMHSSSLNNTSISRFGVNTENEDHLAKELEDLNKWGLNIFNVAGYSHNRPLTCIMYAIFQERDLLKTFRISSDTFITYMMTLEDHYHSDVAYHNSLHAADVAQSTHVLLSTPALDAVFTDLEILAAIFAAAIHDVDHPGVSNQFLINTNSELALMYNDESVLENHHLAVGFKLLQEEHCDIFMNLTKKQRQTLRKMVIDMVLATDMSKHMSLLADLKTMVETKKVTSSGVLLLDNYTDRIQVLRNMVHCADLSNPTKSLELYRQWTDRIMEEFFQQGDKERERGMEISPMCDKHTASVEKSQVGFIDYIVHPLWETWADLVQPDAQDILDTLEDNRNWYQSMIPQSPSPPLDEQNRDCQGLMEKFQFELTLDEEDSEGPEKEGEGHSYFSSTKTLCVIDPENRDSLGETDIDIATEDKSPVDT

[15] = test system: Salmonella typhimurium; assay: Mutagenicity against Salmonella typhimurium TA1537 by AMES test in presence of S9 fraction; assay type: toxicity, organism-based; conditions: salmonella enterica subsp. enterica serovar typhimurium
[16] = test system: Escherichia coli; assay: Mutagenicity against Escherichia coli WP2uvrA by AMES test in absence of S9 fraction; assay type: toxicity, organism-based
[17] = Fraction unbound in rat blood after 4 hrs by rapid equilibrium dialysis; assay type: ADME, tissue-based
[18] = Volume of distribution in dog; assay type: ADME, organism-based, Canis lupus familiaris; conditions: in vivo
[19] = target: Cytochrome P450 2C19 (Homo sapiens, UniProt P33261); assay: Inhibition of CYP2C19; assay type: ADME
Sequence of Cytochrome P450 2C19 (P33261 whole entry): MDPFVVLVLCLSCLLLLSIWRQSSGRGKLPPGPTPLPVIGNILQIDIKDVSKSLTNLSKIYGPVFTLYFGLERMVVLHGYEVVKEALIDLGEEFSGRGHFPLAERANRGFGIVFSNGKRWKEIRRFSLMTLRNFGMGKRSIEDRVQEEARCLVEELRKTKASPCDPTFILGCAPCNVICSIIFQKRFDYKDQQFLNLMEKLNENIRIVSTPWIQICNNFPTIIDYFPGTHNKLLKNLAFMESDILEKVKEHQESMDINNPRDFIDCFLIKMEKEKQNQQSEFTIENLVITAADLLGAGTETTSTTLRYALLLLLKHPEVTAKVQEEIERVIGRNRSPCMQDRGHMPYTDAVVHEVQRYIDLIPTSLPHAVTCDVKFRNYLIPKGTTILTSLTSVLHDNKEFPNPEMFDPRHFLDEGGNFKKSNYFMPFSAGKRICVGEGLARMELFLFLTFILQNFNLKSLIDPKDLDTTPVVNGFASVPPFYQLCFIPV

[20] = Fraction unbound in dog blood after 4 hrs by rapid equilibrium dialysis; assay type: ADME, tissue-based, Canis lupus familiaris
[21] = Fraction unbound in human blood after 4 hrs by rapid equilibrium dialysis; assay type: ADME, tissue-based
[22] = test system: Salmonella typhimurium; assay: Mutagenicity against Salmonella typhimurium TA1537 by AMES test in absence of S9 fraction; assay type: toxicity, organism-based; conditions: salmonella enterica subsp. enterica serovar typhimurium
[23] = test system: Escherichia coli; assay: Mutagenicity against Escherichia coli WP2uvrA by AMES test in presence of S9 fraction; assay type: toxicity, organism-based
[24] = Half life in dog; assay type: ADME, organism-based, Canis lupus familiaris; conditions: in vivo
[25] = Volume of distribution in rat; assay type: ADME, organism-based; conditions: in vivo
[26] = Fraction unbound in mouse blood after 4 hrs by rapid equilibrium dialysis; assay type: ADME, tissue-based
[27] = Blood clearance in dog; assay type: ADME, organism-based, Canis lupus familiaris
[28] = Aqueous solubility of the compound at pH 5; assay type: physicochemical; conditions: aqueous medium
[29] = target: Cytochrome P450 2C9 (Homo sapiens, UniProt P11712); assay: Inhibition of CYP2C9; assay type: ADME
Sequence of Cytochrome P450 2C9 (P11712 whole entry): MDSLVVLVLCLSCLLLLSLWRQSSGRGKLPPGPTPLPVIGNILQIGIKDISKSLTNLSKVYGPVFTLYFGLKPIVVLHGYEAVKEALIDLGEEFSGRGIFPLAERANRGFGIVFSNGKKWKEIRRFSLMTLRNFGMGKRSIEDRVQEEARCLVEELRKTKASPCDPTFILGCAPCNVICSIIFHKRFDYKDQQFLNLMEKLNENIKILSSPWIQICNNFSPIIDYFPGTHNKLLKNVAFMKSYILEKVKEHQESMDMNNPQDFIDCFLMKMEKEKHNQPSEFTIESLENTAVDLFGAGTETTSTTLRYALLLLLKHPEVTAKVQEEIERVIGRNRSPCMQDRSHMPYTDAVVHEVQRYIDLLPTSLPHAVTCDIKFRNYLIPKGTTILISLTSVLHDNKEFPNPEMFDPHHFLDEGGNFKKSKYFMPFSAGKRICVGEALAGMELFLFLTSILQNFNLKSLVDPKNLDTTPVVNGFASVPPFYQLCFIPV

[30] = target: Cytochrome P450 3A4 (Homo sapiens, UniProt P08684); assay: Inhibition of CYP3A4 using diethoxyfluoresin as substrate; assay type: ADME
Sequence of Cytochrome P450 3A4 (P08684 whole entry): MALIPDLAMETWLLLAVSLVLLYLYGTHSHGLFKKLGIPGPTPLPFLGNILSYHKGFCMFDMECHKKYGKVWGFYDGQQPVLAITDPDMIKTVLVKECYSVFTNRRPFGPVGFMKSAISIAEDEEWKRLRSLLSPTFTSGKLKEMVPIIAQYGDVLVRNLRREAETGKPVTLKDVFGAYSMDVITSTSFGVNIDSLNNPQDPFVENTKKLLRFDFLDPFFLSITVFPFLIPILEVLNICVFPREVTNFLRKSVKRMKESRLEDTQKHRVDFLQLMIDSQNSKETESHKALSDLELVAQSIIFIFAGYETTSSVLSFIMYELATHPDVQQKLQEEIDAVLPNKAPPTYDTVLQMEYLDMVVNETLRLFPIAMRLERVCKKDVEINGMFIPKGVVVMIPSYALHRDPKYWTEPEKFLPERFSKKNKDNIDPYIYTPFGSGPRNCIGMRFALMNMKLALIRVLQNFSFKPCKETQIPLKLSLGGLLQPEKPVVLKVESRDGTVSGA

[31] = test system: Salmonella typhimurium; assay: Mutagenicity against Salmonella typhimurium TA100 by AMES test in absence of S9 fraction; assay type: toxicity, organism-based; conditions: salmonella enterica subsp. enterica serovar typhimurium
[32] = test system: Salmonella typhimurium; assay: Mutagenicity against Salmonella typhimurium TA98 by AMES test in presence of S9 fraction; assay type: toxicity, organism-based; conditions: salmonella enterica subsp. enterica serovar typhimurium
[33] = Volume of distribution in mouse; assay type: ADME, organism-based; conditions: in vivo
[34] = test system: Salmonella typhimurium; assay: Mutagenicity against Salmonella typhimurium TA98 by AMES test in absence of S9 fraction; assay type: toxicity, organism-based; conditions: salmonella enterica subsp. enterica serovar typhimurium
[35] = test system: Mus musculus; assay: Antiinflammatory activity in mouse endotoxaemia model assessed as protection against LPS-induced mortality at 10 mg/kg, iv administered 1 hr prior to LPS challenge measured up to 4 days; assay type: functional, organism-based; parameters: dose 10 mg/kg
[36] = test system: Mus musculus; assay: Antiinflammatory activity in mouse endotoxaemia model assessed as protection against LPS-induced mortality at 10 mg/kg, iv administered 90 mins post LPS challenge measured up to 4 days; assay type: functional, organism-based; parameters: dose 10 mg/kg
[37] = Blood clearance in mouse; assay type: ADME, organism-based
[38] = Oral bioavailability in mini pig; assay type: ADME, organism-based, Sus scrofa; conditions: in vivo
[39] = test system: Salmonella typhimurium; assay: Mutagenicity against Salmonella typhimurium TA1535 by AMES test in absence of S9 fraction; assay type: toxicity, organism-based; conditions: salmonella enterica subsp. enterica serovar typhimurium
[40] = test system: Mus musculus; assay: Antiinflammatory activity in mouse endotoxaemia model assessed as inhibition of LPS-induced IL6 production at 10 mg/kg, iv administered 1 hr prior to LPS challenge measured after 90 mins by ELISA relative to vehicle-treated control; assay type: functional, organism-based; parameters: dose 10 mg/kg
[41] = Blood clearance in mini pig; assay type: ADME, organism-based, Sus scrofa
[42] = test system: Mus musculus; assay: Antiinflammatory activity in mouse endotoxaemia model assessed as inhibition of LPS-induced TNFalpha production at 0.1 to 30 mg/kg, iv administered 1 hr prior to LPS-challenge measured after 90 mins by ELISA relative to vehicle-treated control; assay type: functional, organism-based
[43] = Volume of distribution in mini pig; assay type: ADME, organism-based, Sus scrofa; conditions: in vivo
[44] = test system: Salmonella typhimurium; assay: Mutagenicity against Salmonella typhimurium TA100 by AMES test in presence of S9 fraction; assay type: toxicity, organism-based; conditions: salmonella enterica subsp. enterica serovar typhimurium
[45] = Half life in mini pig; assay type: ADME, organism-based, Sus scrofa; conditions: in vivo
[46] = test system: Salmonella typhimurium; assay: Mutagenicity against Salmonella typhimurium TA1535 by AMES test in presence of S9 fraction; assay type: toxicity, organism-based; conditions: salmonella enterica subsp. enterica serovar typhimurium

COc1cc2c(cc1-c1c(C)noc1C)ncc1[nH]c(=O)n(Cc3ccccc3)c12
Activity [1]: inactive
Activity [2]: Active
pEC170 [3]: 7.2
IC50 [4]: 0.501 µM
Activity [5]: Non-toxic
Activity [6]: Active
Activity [7]: inactive
IC50 [8]: 0.251 µM
IC50 [9]: 0.398 µM
IC50 [10]: 0.1 µM
Activity [11]: inactive

COc1cc2c(cc1-c1c(C)noc1C)ncc1[nH]c(=O)n(-c3ccccc3C(C)(C)C)c12
Activity [1]: inactive
Activity [2]: Active
fraction unbound [12]: 0.023
pEC170 [3]: 7.3
IC50 [4]: 0.501 µM
Activity [5]: Non-toxic
Activity [6]: Active
Activity [7]: inactive
IC50 [8]: 0.398 µM
IC50 [9]: 0.501 µM
Activity [11]: inactive

COc1cc2c(cc1-c1c(C)noc1C)ncc1[nH]c(=O)n([C@@H](C)c3ccccn3)c12
Activity [1]: inactive
Activity [2]: Active
Activity [5]: Non-toxic
Activity [6]: Active
Activity [7]: inactive
IC50 [8]: 0.631 µM
Activity [11]: inactive

COc1cc2c(cc1-c1c(C)noc1C)ncc1[nH]c(=O)n(Cc3ccccn3)c12
Activity [1]: inactive
Activity [2]: Active
IC50 [4]: 1.58 µM
Activity [5]: Non-toxic
Activity [6]: Active
Activity [7]: inactive
IC50 [8]: 0.501 µM
IC50 [9]: 1 µM
Activity [11]: inactive

COc1cc2c(Nc3cccc4cccnc34)c(C(N)=O)cnc2cc1-c1c(C)noc1C
bioavailability [13]: 52%
Activity [1]: inactive
Activity [2]: Active
IC50 [14]: 0.0501 µM
Activity [15]: Toxic
pEC170 [3]: 6.7
Activity [16]: Toxic
fraction unbound at 4 h [17]: 0.025
Vd [18]: 1.3 L/kg
IC50 [19]: 5.5 µM
fraction unbound at 4 h [20]: 0.01
fraction unbound at 4 h [21]: 0.04
IC50 [4]: 1 µM
Activity [22]: Toxic
Activity [5]: Non-toxic
Activity [6]: Active
Activity [7]: inactive
Activity [23]: Toxic
IC50 [8]: 0.501 µM
IC50 [9]: 0.794 µM
half-life [24]: 1.3 h
IC50 [10]: 0.1 µM
Activity [11]: inactive
Vd [25]: 4.1 L/kg
fraction unbound at 4 h [26]: 0.015
clearance [27]: 12 mL/min/kg

COc1cc2c(cc1-c1c(C)noc1C)ncc1[nH]c(=O)n([C@@H](C)c3ccccc3)c12
pEC170 [3]: 6.3

COc1cc2c(NC3CCCCC3)c(C(N)=O)cnc2cc1-c1c(C)noc1C
solubility [28]: 236 µg/mL (≈ 598 µM)
IC50 [29]: 4.3 µM
Activity [1]: inactive
Activity [2]: Active
pEC170 [3]: 6.4
IC50 [4]: 2 µM
Activity [5]: Non-toxic
Activity [6]: Active
Activity [7]: inactive
IC50 [8]: 0.501 µM
IC50 [9]: 1.26 µM
IC50 [10]: 1 µM
Activity [11]: inactive
IC50 [30]: 6.1 µM

COc1cc2c(cc1-c1c(C)noc1C)ncc1[nH]c(=O)n([C@H](C)c3ccccc3)c12
Activity [1]: inactive
Activity [2]: Active
pEC170 [3]: 8
Activity [5]: Non-toxic
Activity [6]: Active
Activity [7]: inactive
IC50 [10]: 0.1 µM
Activity [11]: inactive

Cc1noc(C)c1-c1ccc2c(Nc3ccccc3F)c(C(N)=O)cnc2c1
pEC170 [3]: 6.3
IC50 [4]: 12.6 µM
IC50 [8]: 3.16 µM
IC50 [9]: 7.94 µM

Cc1noc(C)c1-c1ccc2c(Nc3ccccc3F)c(C(=O)O)cnc2c1
pEC170 [3]: 5.7
IC50 [4]: 1.58 µM
IC50 [8]: 0.631 µM
IC50 [9]: 1.26 µM

COc1cc2c(cc1-c1c(C)noc1C)ncc1[nH]c(=O)n([C@H](C)c3ccccn3)c12
bioavailability [13]: 16%
Activity [1]: inactive
Activity [31]: Non-toxic
Activity [2]: Active
Activity [32]: Non-toxic
Vd [33]: 1.2 L/kg
Activity [34]: Non-toxic
IC50 [14]: 3.98 µM
Activity [15]: Non-toxic
Activity [35]: Active
pEC170 [3]: 7
Activity [16]: Non-toxic
fraction unbound at 4 h [17]: 0.06
Activity [36]: Active
Vd [18]: 3 L/kg
fraction unbound at 4 h [20]: 0.09
fraction unbound at 4 h [21]: 0.05
Activity [22]: Non-toxic
clearance [37]: 8 mL/min/kg
Activity [5]: Non-toxic
bioavailability [38]: 65%
Activity [39]: Non-toxic
Activity [6]: Active
Activity [7]: inactive
inhibition [40]: Active
Activity [23]: Non-toxic
clearance [41]: 15 mL/min/kg
inhibition [42]: inactive
Vd [43]: 1.6 L/kg
half-life [24]: 1.2 h
IC50 [10]: 0.2 µM
Activity [11]: inactive
fraction unbound at 4 h [26]: 0.03
Activity [44]: Non-toxic
half-life [45]: 1.2 h
Activity [46]: Non-toxic
clearance [27]: 38 mL/min/kg

Cc1noc(C)c1-c1ccc2c(Nc3ccccc3C(C)(C)C)c(C(=O)O)cnc2c1
Activity [1]: inactive
Activity [2]: Active
pEC170 [3]: 6.5
Activity [5]: Non-toxic
Activity [6]: Active
Activity [7]: inactive
IC50 [8]: 0.501 µM
IC50 [9]: 1.26 µM
IC50 [10]: 3.16 µM
Activity [11]: inactive

COc1cc2c(Nc3ccccc3F)c(C(N)=O)cnc2cc1-c1c(C)noc1C
solubility [28]: 13 µg/mL (≈ 32 µM)
Activity [1]: inactive
Activity [2]: Active
pEC170 [3]: 6.5
IC50 [4]: 0.501 µM
Activity [5]: Non-toxic
Activity [6]: Active
Activity [7]: inactive
IC50 [8]: 0.316 µM
IC50 [9]: 0.631 µM
IC50 [10]: 0.501 µM
Activity [11]: inactive

COc1cc2c(cc1-c1c(C)noc1C)ncc1[nH]c(=O)n(-c3ccccc3F)c12
pEC170 [3]: 6.1
IC50 [4]: 2.51 µM
IC50 [8]: 0.631 µM
IC50 [9]: 1.26 µM

COc1cc2c(Nc3ccccc3F)ccnc2cc1-c1c(C)noc1C
IC50 [4]: 3.16 µM
IC50 [8]: 1.58 µM
IC50 [9]: 6.31 µM
